From PubChem BioAssay (NCI)
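Where inhibition never reached the appropriate level, the endpoint shown equals the highest concentration tested. Otherwise, values were interpolated linearly from a five-concentration, 48-hour dose response in 96-well plates. Abbreviation: GI50, concentration required for 50% inhibition of growth. TGI denotes the concentration required for complete inhibition of growth.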

Each compound was assayed on U251 CNS (assay: inhibition of tumour cell growth, NCI panel, 48 h).

Which TGI does the source give for `COc1ccc(CC(N)=O)cc1OC` here?
Its TGI is greater than 1250 µM.

`CCOC(=O)CNC(=O)NC12CC3CC(CC(C3)C1)C2` was tested. Which TGI did it give?
Its TGI is greater than 550 µM.

What does the source list for `COc1cc2c(cc1OCCCCCN1CCN(c3ncnc4ccccc34)CC1)N=CC1CCCN1C2=O` (stereo not given)?
GI50: 0.0252 µM; TGI: 3.98 µM

Which TGI does the source give for `O=C(NCCCl)O/N=C/c1cccnc1` here?
Its TGI is greater than 100 µM.

With `C/C1=C\[C@H](C)C[C@H](C)OC(=O)[C@H](C)NC(=O)[C@@H](Cc2ccc(O)c(Br)c2)N(C)C(=O)[C@H](C)NC(=O)[C@@H](C)C1` as the compound, how does the TGI read?
Its TGI is greater than 7.76 µM.

`CC(C)C1=CC23CCC4C(C)(C(=O)O)CCCC4(C)C2CC1C1C(=O)N(CCCCCCN2C(=O)C4C5CC6C7(C)CCCC(C)(C(=O)O)C7CCC6(C=C5C(C)C)C4C2=O)C(=O)C13` (stereo not given) was tested. Which TGI did it give?
The TGI was 15.7 µM.

`COC(=O)c1ccccc1CC1Cc2cccc(C)c2C1=O` (stereo not given) was tested. Which TGI did it give?
Its TGI is greater than 100 µM.

These compounds were tested on UO-31 renal (assay: inhibition of tumour cell growth, NCI panel, 48 h).

For `C=CC1(C)CC(=O)C2(O)C(C)(O1)C(OC(C)=O)C(O)C1C(C)(C)CCC(O)C12C` (stereo not given), which GI50 is on record?
Its GI50 is greater than 72.5 µM.

What about the TGI of the same compound?
Its TGI is greater than 137 µM.

For `Cc1cc(N(C)C)c2ccccc2[n+]1CCCCCCCCCC[n+]1c(C)cc(N(C)C)c2ccccc21`, which TGI is on record?
Its TGI is 13.1 µM.

How did the TGI turn out when `CN1Cc2c(nc(-c3ccccc3)c[n+]2[O-])N(C)C1` was run?
Its TGI is greater than 100 µM.

How did the TGI turn out when `C=C(CN(C)C)C(=O)c1ccc(C(=O)C(=C)CN(C)C)cc1` was run?
The TGI was greater than 100 µM.

With `CNc1[nH]c(=S)nc2sc3c(c12)CCCC3` as the compound, how does the TGI read?
The TGI was greater than 75 µM.

For `Cc1c2c(c(C)n1-c1ccccc1)C(=O)N(CCN1CCN(c3cccc(C(F)(F)F)c3)CC1)C2=O`, which TGI is on record?
The TGI was greater than 100 µM.

With `O[C@H]1[C@H](O)[C@@H](O)CN2CC[C@H](O)[C@H]12` as the compound, how does the TGI read?
Its TGI is greater than 100 µM.

For `COc1cc(O)c2c(=O)c(OC)c(-c3ccc(OC)c(O)c3)oc2c1`, which TGI is on record?
The TGI was greater than 100 µM.

With `Clc1sc(Cl)c2c1[C@@H](Cl)C[C@@H]2Br` as the compound, how does the TGI read?
Its TGI is greater than 100 µM.

For `O=C(OCC(Cl)(Cl)Cl)N1CC[C@H](C2CCCCC2)C1`, which TGI is on record?
Its TGI is 35.3 µM.

How did the TGI turn out when `c1ccc(C(C(=Nc2ccc(Cc3ccc(N=C(C(c4ccccc4)c4ccccc4)N4CC4)cc3)cc2)N2CC2)c2ccccc2)cc1` was run?
The TGI was 14.8 µM.

For `C=C(C)CNCCN`, which TGI is on record?
Its TGI is greater than 100 µM.

For `Cc1ccnc(NC(=S)Nc2ccc([N+](=O)[O-])cc2)c1`, which TGI is on record?
The TGI was greater than 100 µM.

`O=C(CN1C(=O)CC(c2ccccc2)(c2ccccc2)C1=O)N1CCN(CCO)CC1` was tested. Which TGI did it give?
The TGI was greater than 100 µM.

For `COc1ccc2oc(=N)c(C(=O)Nc3ccccc3)cc2c1`, which TGI is on record?
Its TGI is greater than 100 µM.

With `O=C1c2cccc3cccc(c23)C(=O)N1CCCNCCCCNCCCNCCCN1C(=O)c2cccc3cccc(c23)C1=O` as the compound, how does the TGI read?
The TGI was 18.6 µM.

`C=C(C)[C@H]1C2=CC(C(=O)OC)=C(C[C@H](C(=C)C)[C@@H](O)[C@@H](O)C3=C[C@H]1OC3=O)O2` was tested. Which TGI did it give?
The TGI was 85.6 µM.

For `O=c1onc2n1-c1cc(Cl)ccc1C(=S)N1CSCC21` (stereo not given), which TGI is on record?
The TGI was greater than 100 µM.

How did the TGI turn out when `COc1cc(C2c3cc4c(cc3[C@@H](Nc3ccccc3)C3COC(=O)[C@H]23)OCO4)cc(OC)c1O` (stereo not given in full) was run?
Its TGI is 5.07 µM.

Which TGI does the source give for `OC(C#CCN1CCCC1)(c1ccccc1)c1ccccc1Cl` (stereo not given) here?
Its TGI is greater than 100 µM.

With `CSc1nc2c(c(N(C)C)n1)C(O)n1c(nc3ccccc31)S2` (stereo not given) as the compound, how does the TGI read?
Its TGI is greater than 100 µM.

With `O=C1NC(O)CCN1C1OC(CO)C(O)C1O` (stereo not given) as the compound, how does the TGI read?
The TGI was greater than 250 µM.

For `COc1ccc(-c2nc3ccccc3c(=S)n2OC(C)=O)cc1`, which TGI is on record?
Its TGI is greater than 25 µM.

`C=C1C(=O)[C@@]23CC[C@@H]4[C@@]5(C)CCC[C@@]4(OC5=O)[C@@]2(C)CC[C@@H]1C3` was tested. Which TGI did it give?
The TGI was 3.43 µM.

With `Cn1ncc2c(NCc3ccccc3)ncnc21` as the compound, how does the TGI read?
Its TGI is greater than 100 µM.

With `CCCCOCCOC1=C(Cl)C(=O)c2c(O)ccc(O)c2C1=O` as the compound, how does the TGI read?
The TGI was 1.72 µM.

Which TGI does the source give for `N#CC(c1ccccc1)N(CCOCCOCCN(C(=O)c1ccccc1)C(C#N)c1ccccc1)C(=O)c1ccccc1` (stereo not given) here?
The TGI was greater than 100 µM.

`CN1CCN(Cc2cc3c(nn2)-c2ccccc2C3=O)CC1` was tested. Which TGI did it give?
The TGI was greater than 100 µM.

With `COc1cccc2c1OC(c1cccc3ccccc13)C([N+](=O)[O-])=C2` (stereo not given) as the compound, how does the TGI read?
The TGI was 2.75 µM.

`CN(C)Cc1cc(C(=O)/C=C/c2ccc([N+](=O)[O-])cc2)cc(CN(C)C)c1O` was tested. Which TGI did it give?
The TGI was greater than 100 µM.

Which TGI does the source give for `CC(C(=O)COCc1ccccc1)P1(=O)OC(C)(C)CN1C(C)(C)C` (stereo not given) here?
The TGI was greater than 100 µM.

How did the TGI turn out when `Cn1c2ccccc2c2c(=S)c3ccccc3ccc21` was run?
The TGI was greater than 100 µM.

With `CC1OC(O[C@H]2C3C=CO[C@@H](OC4OC(CO)C(O)C(O)C4O)C3[C@@]3(COC(=O)/C=C/c4ccccc4)O[C@@H]23)C(O)C(O)C1O` (stereo not given in full) as the compound, how does the TGI read?
Its TGI is greater than 100 µM.

`O=C1C(=Nc2ccc(Nc3ccccc3)cc2)Oc2ccccc21` was tested. Which TGI did it give?
Its TGI is 5.58 µM.

Which TGI does the source give for `COc1ccc(CC(N)=O)cc1OC` here?
The TGI was greater than 1250 µM.

With `CCOC(=O)CNC(=O)NC12CC3CC(CC(C3)C1)C2` as the compound, how does the TGI read?
Its TGI is 512 µM.

With `COc1cc2c(cc1OCCCCCN1CCN(c3ncnc4ccccc34)CC1)N=CC1CCCN1C2=O` (stereo not given) as the compound, how does the GI50 read?
The GI50 was 0.03 µM.

And the TGI?
The TGI was 0.198 µM.

For `O=C(NCCCl)O/N=C/c1cccnc1`, which TGI is on record?
Its TGI is greater than 100 µM.

`C/C1=C\[C@H](C)C[C@H](C)OC(=O)[C@H](C)NC(=O)[C@@H](Cc2ccc(O)c(Br)c2)N(C)C(=O)[C@H](C)NC(=O)[C@@H](C)C1` was tested. Which TGI did it give?
Its TGI is 0.152 µM.

For `COC(=O)c1ccccc1CC1Cc2cccc(C)c2C1=O` (stereo not given), which TGI is on record?
The TGI was 67.2 µM.
